# Laboratory results reported in article PMC4728560 (Scientific Reports, 2016).
# Test system: Bax mediated cytochrome c release, Bcl-xL
# Assay: Cytochrome c release from purified mitochondria by tBid and Bax in the presence of Bcl-xL
# Type: biochemical
# Settings: mouse liver mitochondria; 5 nM tBid, 50 nM Bax, 300 nM Bcl-xL; 15 min, 30 °C; Western blot; pre-incubation pH 9, 30 °C
# Description: (A–E) in vitro reconstitution assay on liposome permeabilization. […] The treated Bcl-xL was then added to reactions containing ANTS-DPX liposomes, 100 nM Bax and 20 nM of either cBid (A,B) or cBidmt1(C,D) at pH 7. Liposome permeabilization was quantified by fluorescence after 5h incubation at 37 °C where 100% release was defined as the fluorescence change due to lipid solubilization with 1% Triton X-100. […] Error bars, std. dev. n = 3. To compare between the TCTP treated groups and the Control group statistically, two-way ANOVA test was performed for (A–D) and one-way ANOVA test was performed for (E). […] Colored asterisks above each data point indicate the statistical significance (*p < 0.05; **p < 0.01, no asterisks if p ≥ 0.05). A complete statistical analysis is provided in Supplementary Table 2–4. […] Cyto c extra-mito: in the supernatant, analysed by Western blot. […]
# to highlight the pre-incubation), pH 9, 30 C° before being added to the mitochondria at their final concentrations. […] Cytochrome c was detected in the mitochondrial fraction (Cyto c intra-mito) or in the supernatant (Cyto c extra-mito) by Western blot analysis. […]
# Cytochrome c release assay. […] Mitochondrial pellets and the corresponding supernatant fractions were subjected to SDS-polyacrylamide gel electrophoresis and analyzed by Western blotting for cytochrome c.
substance,measurement,value
"TCTP: Translationally Controlled Tumor Protein (TCTP/tpt1), recombinant full-length",inhibition of cytochrome c release in the presence of Bcl-xL,inhibit cytochrome c release in a concentration-dependent manner
